The test system of series [1] is isolation induced aggressive behavior in mice. The series can be described thus: Inhibition of isolation induced fighting behavior in mice. In kind it is in vivo, CD #1 mice. Conditions: i.p. How it is done: 1. Inhibition of Isolation Induced Fighting Behavior in Mice
After this period of confinement, the animals usually develop a marked intraspecific aggressive behavior when they are placed in the same cage.
The compound to be studied is administered i.p. to the selected groups (N=8 pairs/dose×5 doses) and the aggressive behavior is tested again 30 minutes later. […] A one week washout period is allowed between treatments.

Series [2] relates to exploratory behavior in rats. The series can be described thus: Inhibition of exploratory behavior in rats (hole poking). The series is classed as in vivo, Sprague-Dawley rats. Conditions: rats. How it is done: 8. Inhibition of Exploratory Behavior in Rats (Hole Poking).
This test is done with Sprague-Dawley male rats of about 300 g. Activity is evaluated with a […] XYZ activity cage connected to a […] […] DCM-4. A perforated plate (16 holes of 2-5 cm diameter) is placed in the enclosure and on the activity case to register vertical activity. The number of times the rat placed his snout into the holes during a 10 minute period is recorded. The test was started 30 minutes after the interperitoneal injection of the compound to be studied.
The results which are reported in Table 8 are expressed in terms of the dose required to diminish by 50% the exploratory behavior, with reference to animals injected with the carrier only. Diazepam and buspirone are used as standards.

For series [3], the system named is aggressive behavior in combative mice. The series can be described thus: Inhibition of aggressive behavior in combative mice at various times (correlation with plasma concentration). The series is classed as in vivo. Conditions: 10 mg/kg i.p.; for inhibition at 10 mg/kg: Mus musculus, ip. The procedure: The mice are placed together, in pairs, for 5 minutes. This pairing is performed 10, 25, 55, 85 and 115 minutes after the administration of compound N^o 3. One minute after each of the 5 minute periods of placing the animals together, three pairs of animals are anesthetized with ether and guillotined in order to determine the concentration of compound N^o 3 in the plasma. The plasma sample is prepared by centrifugation (16,000 G) of 800 μl of blood to which 50 μl of EDTA Na4 (0.1M) is added. The inhibition of aggressive behavior at the different times in which the animals are placed together and the number of pairs evaluated is shown in the following Table: […]

Series [4] concerns aggressive behavior of combative mice. Kind of series: Duration of antiaggressive effect. In kind it is in vivo. To be noted: single dose 10 mg/kg i.p., FIG. 2. An excerpt: 11. Duration of Antiaggressive Effect
Series [5] shares this test system. The series can be described thus: Persistence of antiaggressive effect. To be noted: 10 mg/kg i.p. daily for five days, FIG. 3. In kind it is in vivo. An excerpt:
12. Persistence of Antiaggressive Effect

Series [6] is described as follows: Vapor pressure at room temperature. The series is classed as physicochemical. Conditions: free base.

Entries after “also recorded” stand apart in the source; their conditions may differ.

For `C#CC(C)N` (centres unmarked) [Compound 3, 2-Amino-3-butyne], the ED50 in series [1] (Mus musculus, ip, 0.5 h, read-out: ED50 (dose that suppressed aggressive behavior in 50% of the animals), 30 minutes after administration, probit analysis) was 8 mg/kg; in series [2] (Rattus norvegicus, ip, 0.5 h, i.p., 30 minutes, read-out: dose required to diminish by 50% the exploratory behavior), 4.6 ± 2.6 mg/kg. In addition, the “inhibition of aggressive behavior (in words)” value in series [1] (mice) is reported as “particularly potent inhibitors”. Moreover, in series [2], the “inhibition of exploratory behavior (in words)” value is recorded as “more potent, in this respect, than diazepam but they rapidly lose their ability to produce this effect after the first administration”. Further, in series [3], the “antiaggressive activity over time (in words)” value is “noticeable activity after a few minutes; also recorded: activity is maximal when the plasma concentration is no longer detectable”. For the same molecule, the “time of maximum antiaggressive activity” value in series [3] amounted to 60 min. The inhibition at 10 mg/kg in series [3] (0.5 h, 30 min, 12 pairs) is 87.5%; in series [3] (1 h, 60 min, 9 pairs), 100%; in series [3] (1.5 h, 90 min, 3 pairs), 100%; in series [3] (2 h, 120 min, 3 pairs) it was 100%; in series [3] (15 min, 15 pairs), 75%. For the same molecule, in series [4], the “duration of inhibitory effect on aggressive behavior” value is “approximately 4 hours”. Moreover, the “persistence of inhibitory effect on aggressive behavior (in words)” value in series [5] was “also persists when the compound is administered on a daily basis”. Also, in series [6], the “vapor pressure (in words)” value is listed as “high vapor pressure at room temperature”.

By inhibition is commonly meant the change of the read-out against control, counted positive when it falls. Lower therefore signals a weak effect.

(Values after patent US5436273A, “Psychoactive propargylamine derivatives used in the treatment of anxiety, psychotic states or aggression” (Lowchol Scientific, Inc., priority 1993, dated 1995).)
